Source: US12479858B2, “Macrocyclic compounds as sting agonists and methods and uses thereof” (Lupin Limited, priority 2019, dated 2025)
pEC50: −log10 of the molar value. Structures can show the parent of a compound that is named as a salt. Where two headings read alike, the source gives them in different places.

What was measured:
[1] = snar bond, 15-membered ring, (E)-but-2-ene-1,4-diamine 2HCl/DIPEA
[2] = the molecule shown is the open-chain precursor; snar bond; 15-membered ring; (E)-but-2-ene-1,4-diamine 2HCl/DIPEA; EtOH/THF 3:1; 46.0 mM; 105.0 °C
[3] = Apparent solubility/extended kinetic solubility by UHPLC; format: physicochemical; conditions: aqueous buffer, thermodynamic from solid, phosphate buffer, 37° C.
Experimental: Biological Assay—Determination of Apparent Solubility/Extended Kinetic Solubility by UHPLC
Test sample preparation: About 0.5 mg of the test sample was weighed and transferred in duplicate in 1 mL glass inserts of 96 well plates. 5 μL of DMSO and 1 ml of phosphate buffer were added. Allowed for equilibrium in an orbital shaker at 37° C. for 24 hrs. Later, allowed it cool to room temperature and centrifuged the 96 well plate (at 240×10 RPM for 20 min) and supernatant material was taken into collection plate, covered it with the heat resistant aluminum sheet or supernatant material was directly taken into HPLC sample vial.
Injected diluent as blank and linearity solutions in duplicate. Recorded the chromatograms and plotted the calibration curve, concentration (X-axis) versus Area (y-axis). The correlation coefficient for calibration curve should be not less than 0.95. If above criteria passes, then injected the test samples and recorded the chromatograms. In case saturated peaks are observed, then diluted the test sample with diluent as appropriate.
Calculated the slope and intercept of the calibration curve. From the standard curve, determined the solubility of the sample in μM (micromolar).

Human STING = biological target: T1, Human STING (Homo sapiens, UniProt Q86WV6, G230A/H232R/R293Q/R71H); test: Stimulation of human STING signaling in THP1 cell line (THP1-Blue ISG SEAP reporter); format: cell-based; conditions: THP1-Blue ISG cells, SEAP activity, 18-20 hours
T1 construct: using human THP1-Blue™ ISG SEAP based reporter cell line (Invivogen); host or cells: THP1-Blue ISG cells (human monocytic THP-1 derived SEAP reporter line)
T1 sequence (Q86WV6 whole entry R71H/G230A/H232R/R293Q): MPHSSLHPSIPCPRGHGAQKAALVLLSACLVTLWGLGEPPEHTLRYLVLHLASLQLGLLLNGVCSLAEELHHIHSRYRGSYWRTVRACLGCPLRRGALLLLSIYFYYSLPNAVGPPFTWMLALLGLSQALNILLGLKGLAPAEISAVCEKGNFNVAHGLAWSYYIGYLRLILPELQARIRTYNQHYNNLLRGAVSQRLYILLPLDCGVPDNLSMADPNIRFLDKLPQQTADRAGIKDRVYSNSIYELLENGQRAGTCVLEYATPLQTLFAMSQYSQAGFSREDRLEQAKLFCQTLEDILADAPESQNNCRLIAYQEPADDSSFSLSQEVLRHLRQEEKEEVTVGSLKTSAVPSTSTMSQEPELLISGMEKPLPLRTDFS
Experimental: Biological Assay—Stimulation of Human STING Signaling in THP1 Cell Line
Compounds were tested for their STING activation potential using human THP1-Blue™ ISG SEAP based reporter cell line (Invivogen). Briefly, THP1-Blue ISG cells (100,000 cells/well) in 96 well plate were treated with varying concentrations of test and reference compounds and incubated at 37° C. with 5% CO2 for 18-20 hours. The control untreated cells were also set up. Post incubation, the cell supernatant was tested for SEAP (Secreted Embryonic Alkaline Phosphatase) activity using the QuantiBlue™ substrate reagent (Invivogen). The formation of blue coloured product was quantified by measuring absorbance at wavelength of 620 nm using PheraStar/Tecan reader. The average of duplicate readouts for each data point was plotted in GraphPad prism 6 against the concentration of test or reference compound to calculate EC50 value. The fold of SEAP induction or increase in luminescence at different data points was estimated against the un-stimulated cell control set.

**Q.** With `CCOC(=O)c1cc(OCC(COc2cc(C(=O)OCC)cc([N+](=O)[O-])c2Cl)N2CCOCC2)c(Cl)c([N+](=O)[O-])c1` as the compound, how does the ring closure, crude yield ([1]; the molecule shown is the open-chain precursor, EtOH/THF 7:1, 156.5 mM, 110.0 °C) read?
**A.** 88%

**Q.** With `CCOC(=O)c1cc(OCCCOc2cc(C(=O)OC(C)(C)C)cc([N+](=O)[O-])c2Cl)c(Cl)c([N+](=O)[O-])c1` as the compound, how does the ring closure, isolated yield [2] read?
**A.** 90%

**Q.** Which ring closure, crude yield ([1]; the molecule shown is the open-chain precursor, EtOH/THF 3:1, 99.5 mM, 120.0 °C) does the source give for `CCOC(=O)c1cc(OCCCOc2cc(C(N)=O)cc([N+](=O)[O-])c2Cl)c(Cl)c([N+](=O)[O-])c1` here?
**A.** 73%

**Q.** Which ring closure, crude yield ([1]; the molecule shown is the open-chain precursor, EtOH, 121.0 mM, 105.0 °C) does the source give for `CCOC(=O)c1cc(OC[C@H](COc2cc(C(=O)OC(C)(C)C)cc([N+](=O)[O-])c2Cl)N2C3CCC2COC3)c(Cl)c([N+](=O)[O-])c1` here?
**A.** 89.8%

**Q.** With `CCn1nc(C)cc1C(=O)Nc1nc2cc(C(N)=O)cc3c2n1C/C=C/Cn1c(NC(=O)c2cc(C)nn2CC)nc2cc(C(=O)NCCCc4nnn[nH]4)cc(c21)OC[C@@H](N1C2CCC1COC2)CO3` [Compound 16, (8S,E)-N4-(3-(1H-tetrazol-5-yl)propyl)-8-(3-oxa-8-azabicyclo[3.2.1]octan-8-yl)-1,15-bis(1-ethyl-3-methyl-1H-pyrazole-5-carboxamido)-8,9,16,19-tetrahydro-7H-6,10-dioxa-2,14,15a,19a-tetraazacyclopentadeca[3,2,1-cd:8,9,10-c′d′]diindene-4,12-dicarboxamide sodium salt] as the compound, how does the solubility at 24 h [3] read?
**A.** 243 µM

**Q.** And the pEC50 (Human STING)?
**A.** 8.00 to 9.00

**Q.** For `CCn1nc(C)cc1C(=O)Nc1nc2cc(C(N)=O)cc3c2n1C/C=C/Cn1c(NC(=O)c2cc(C)nn2CC)nc2cc(C(=O)NCCCn4cc(C(=O)O)cn4)cc(c21)OC[C@@H](N1C2CCC1COC2)CO3` [Compound 18, 1-(3-((8S,E)-8-(3-oxa-8-azabicyclo[3.2.1]octan-8-yl)-12-carbamoyl-1,15-bis(1-ethyl-3-methyl-1H-pyrazole-5-carboxamido)-8,9,16,19-tetrahydro-7H-6,10-dioxa-2,14,15a,19a-tetraazacyclopentadeca[3,2,1-cd:8,9,10-c′d′]diindene-4-carboxamido)propyl)-1H-pyrazole-4-carboxylic acid sodium salt], which solubility at 24 h [3] is on record?
**A.** 250 µM

**Q.** What about the pEC50 (Human STING) of the same compound?
**A.** 8.00 to 9.00

**Q.** For “diethyl (E)-7-(8-oxa-3-azabicyclo[3.2.1]octan-3-yl)-1,13-dinitro-7,8,14,15,18,19-hexahydro-6H-dibenzo[b,j][1,12]dioxa[4,9]diazacyclopentadecine-3,11-dicarboxylate”, which ring closure, crude yield ([1]; EtOH/THF 7.4:1, 148.0 mM, 110.0 °C) is on record?
**A.** 88%
